Where a name gives a salt, the structure may show the parent alone.
Molecular target: T1, SCD (stearoyl-CoA desaturase) (Rattus norvegicus, UniProt P07308)
T1 construct: The rat liver microsomes were collected according to the procedure described in Ozols (1990) Methods Enzm, 182:225; from tissue; host or cells: liver microsomes of male Sprague Dawley rats after induction with a carbohydrate-rich diet
T1 sequence (P07308 1-358): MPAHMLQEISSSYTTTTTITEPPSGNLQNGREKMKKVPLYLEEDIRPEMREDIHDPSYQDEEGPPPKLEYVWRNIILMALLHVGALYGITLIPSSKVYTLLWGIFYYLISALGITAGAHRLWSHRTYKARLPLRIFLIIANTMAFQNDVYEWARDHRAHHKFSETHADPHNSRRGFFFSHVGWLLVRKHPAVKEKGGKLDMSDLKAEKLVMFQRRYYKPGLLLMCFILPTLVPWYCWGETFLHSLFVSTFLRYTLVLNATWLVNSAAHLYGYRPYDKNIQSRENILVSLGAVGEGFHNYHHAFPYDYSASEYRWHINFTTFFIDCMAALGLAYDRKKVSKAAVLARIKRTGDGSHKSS
Assay: SCD assay with rat liver microsomes ([3H]stearoyl CoA desaturation, adapted from Talamo and Bloch)
Assay type: biochemical
Settings: rat liver microsomes 0.2 mg/ml final, 30 min preincubation, stearoyl CoA substrate, 45 min, room temperature
Description: The identification of compounds of the invention as SCD inhibitors was readily accomplished using the SCD enzyme and microsomal assay procedure described in Talamo and Bloch (1969) Analytical Biochemistry 29:300-304.
The rat liver microsomes were collected according to the procedure described in Ozols (1990) Methods Enzm, 182:225.
Male Sprague Dawley Rats were placed on regimented fasting protocol for one week to stimulate SCD enzymatic activity. 48-hour periods were alternated between feeding and fasting to induce and down-regulate SCD activity with SCD activity being induced via carbohydrate rich diet prior to liver perfusion and collection.
The supernatant was then aspirated off and the collected microsomal pellet washed in 25 mL of Glycerol PBS (1× PBS 7.4, 20% Glycerol) and resuspended in 4-5 volumes of Glycerol PBS.
SCD was determined in the desaturase assay buffer. This assay buffer contained 0.1 M Tris buffer, pH 7.2, 2 mM NADH, 4.8 mM ATP, 0.5 mM CoA, 4.8 mM MgCl2, and 0.1% BSA.
The Procedure for the SCD Assay (Adapted from Talamo and Bloch (1969) Analytical Biochemistry 29:300-304)
1 μl of each compound of Formula I was added to an assay plate by a low volume (0.5-10 μL) multichannel pipette. A DMSO control was also prepared. The microsomes were quickly thawed and added to assay buffer so that a concentration of 0.4 mg/ml was achieved (0.2 mg/ml assay final). 50 μl of the microsome suspension in assay buffer was then added into each well in the compound assay plate, the plate was covered, and the microsomes preincubated with the compounds for 30 minutes on the orbital shaker, 50-75 rpm, at room temperature.
After preincubation, the reaction was initiated by the addition of 50 μl of substrate solution (20 μM Stearoyl CoA, [3H]Stearoyl CoA, 74nCi) to the preincubated microsomes/compound suspensions in MilliQ (Millipore) H2O. The reaction mixtures were then incubated for 45 minutes on the orbital shaker at 50-75 rpm at room temperature.
The reaction was terminated by the addition of 10 μl of 21% trichloroacetic acid (TCA) to the reaction mixture followed incubation on the orbital shaker for 30 minutes at 50-75 rpm at room temperature followed by centrifugation for 5 minutes at 3700 rpm.
50 μl of a 6% Bio-Bead suspension in H2O was added to the reaction mixture and the assay plate was sealed. The Bio-Bead mixture was incubated on the orbital shaker for 1 hour, 100-150 rpm at room temperature, and then the mixture was centrifuged at 2000 g for 5 minutes to pellet the Bio-Beads.
25 μl of the supernatant was harvested from each well and transferred to a detection plate. 100 μl of OptiPhase SuperMix scintillation cocktail (containing sufficient NaOH to neutralize the TCA) was added and the solutions mixed by vigorous shaking (300-400 rpm) for 5 minutes at room temperature.

CC(=O)NCCN1C(=O)C(C)Oc2ccc(NCc3ccc(Cl)c(Cl)c3)cc21 (racemic) [Compound 9, (±)-N-(2-(6-(3,4-dichlorobenzylamino)-2-methyl-3-oxo-2H-benzo[b][1,4]oxazin-4(3H)-yl)ethyl)acetamide]
IC50: 1 to 10 nM

NC(=O)CCN1C(=O)COc2ccc(NCc3ccc(Cl)c(Cl)c3)cc21 [Compound 1, 3-(6-(3,4-dichlorobenzylamino)-3-oxo-2H-benzo[b][1,4]oxazin-4(3H)-yl)propanamide]
IC50: 53.5 nM

O=C(NCCN1C(=O)COc2ccc(NCc3ccc(Cl)c(Cl)c3)cc21)c1ccccc1 [Compound 7, N-(2-(6-(3,4-dichlorobenzylamino)-3-oxo-2H-benzo[b][1,4]oxazin-4(3H)-yl)ethyl)benzamide]
IC50: 2.52 nM

O=C(CO)NCCN1C(=O)COc2ccc(NCc3ccc(Cl)c(Cl)c3)cc21 [Compound 8, N-(2-(6-(3,4-dichlorobenzylamino)-3-oxo-2H-benzo[b][1,4]oxazin-4(3H)-yl)ethyl)-2-hydroxyacetamide hydrochloride]
IC50: 1.39 nM

CC(=O)NCCN1C(=O)COc2ccc(NCc3ccc(Cl)c(C(F)(F)F)c3)cc21 [Compound 5, N-(2-(6-(4-chloro-3-(trifluoromethyl)benzylamino)-3-oxo-2H-benzo[b][1,4]oxazin-4(3H)-yl)ethyl)acetamide hydrochloride]
IC50: 4.87 nM

CC(=O)NCCN1C(=O)COc2ccc(NCc3ccc(Cl)c(Cl)c3)cc21 [Compound 3, N-(2-(6-(3,4-dichlorobenzylamino)-3-oxo-2H-benzo[b][1,4]oxazin-4(3H)-yl)ethyl)acetamide hydrochloride]
IC50: 10.7 nM

O=C1COc2ccc(NCc3ccc(Cl)c(Cl)c3)cc2N1CCOc1ccccc1 [Compound 4, 6-(3,4-dichlorobenzylamino)-4-(2-phenoxyethyl)-2H-benzo[b][1,4]oxazin-3(4H)-one]
IC50: 22200 nM

CC1Oc2ccc(NCc3ccc(Cl)c(C(F)(F)F)c3)cc2N(CCNC(=O)CO)C1=O (racemic) [Compound 12, (±)-N-(2-(6-(4-chloro-3-(trifluoromethyl)benzylamino)-2-methyl-3-oxo-2H-benzo[b][1,4]oxazin-4(3H)-yl)ethyl)-2-hydroxyacetamide]
IC50: 1 to 10 nM

CC(=O)NCCN1C(=O)COc2ccc(NCc3ccccc3)cc21 [Compound 2, N-(2-(6-(benzylamino)-3-oxo-2H-benzo[b][1,4]oxazin-4(3H)-yl)ethyl)acetamide hydrochloride]
IC50: 14900 nM

CC1Oc2ccc(NCc3ccc(Cl)c(Cl)c3)cc2N(CCNC(=O)CO)C1=O (racemic) [Compound 11, (±)-N-(2-(6-(3,4-dichlorobenzylamino)-2-methyl-3-oxo-2H-benzo[b][1,4]oxazin-4(3H)-yl)ethyl)-2-hydroxyacetamide]
IC50: 80 nM

CC(=O)NCCN1C(=O)COc2ccc(NCc3ccc(F)c(C(F)(F)F)c3)cc21 [Compound 6, N-(2-(6-(4-fluoro-3-(trifluoromethyl)benzylamino)-3-oxo-2H-benzo[b][1,4]oxazin-4(3H)-yl)ethyl)acetamide hydrochloride]
IC50: 7.8 nM

CC(=O)NCCN1C(=O)C(C)Oc2ccc(NCc3ccc(Cl)c(C(F)(F)F)c3)cc21 (racemic) [Compound 10, (±)-N-(2-(6-(4-chloro-3-(trifluoromethyl)benzylamino)-2-methyl-3-oxo-2H-benzo[b][1,4]oxazin-4(3H)-yl)ethyl)acetamide]
IC50: 1 to 10 nM

— patent US20090253693A1, “2H-BENZO[b][1,4]OXAZIN-3(4H)-ONE DERIVATIVES FOR USE AS STEAROYL CoA DESATURASE INHIBITORS” (priority 2008, published 2009)
